Read-outs that look alike come from different tables or passages of the source.
Tests used:
[1] = system: TNFα secretion from PMA/ionomycin stimulated white blood cells from human buffy coat; assay: TNFα secretion assay, PMA/ionomycin stimulation
Experimental: (§1) Various concentrations of each test compound were added at the time of stimulation. […] After the plate was washed with 0.1% Tween 20/PBS, an HRP-luminescent substrate was added to each well and light intensity measured using a LJL Analyst plate luminometer.

cytokine secretion = assay: Suppression of cytokine secretion in vitro by individual tricyclic compounds
Experimental: Individual tricyclic compounds were tested for their ability to suppress cytokine secretion in vitro.

[2] = system: TNFα secretion from LPS stimulated white blood cells from human buffy coat; assay: TNFα secretion assay, LPS stimulation; details: for inhibition at 0.03 µM / inhibition at 0.06 µM / inhibition at 0.5 µM / inhibition at 1 µM / inhibition at 2 µM / inhibition at 4 µM / inhibition at 8 µM / inhibition at 16 µM / inhibition at 32 µM / inhibition at 64 µM / inhibition at 63 µM: Homo sapiens
Experimental: as §1

[3] = read-out: TNFα PI percent inhibition, 0.03 μM
[4] = read-out: TNFα PI percent inhibition, 0.06 μM
[5] = read-out: TNFα PI percent inhibition, […]
[6] = read-out: IL-1β LPS percent inhibition
[7] = read-out: IL-2 PI percent inhibition
[8] = read-out: TNFα LPS percent inhibition, 0.03 μM
[9] = read-out: TNFα LPS percent inhibition, 0.06 μM
[10] = read-out: TNFα LPS percent inhibition, […]
[11] = read-out: TNFα PI percent inhibition
[12] = read-out: TNFα LPS percent inhibition

## CNCCCN1c2ccccc2CCc2ccccc21 [Desipramine, desipramine]
[1]; [3]
  inhibition at 0.03 µM: 0%
[1]; [4]
  inhibition at 0.06 µM: 0%
[1]; read-out: TNFα PI percent inhibition, 0.50 μM
  inhibition at 0.5 µM: 0%
[1]; read-out: TNFα PI percent inhibition, 1.00 μM
  inhibition at 1 µM: 0%
[1]; read-out: TNFα PI percent inhibition, 2.00 μM
  inhibition at 2 µM: 1%
[1]; read-out: TNFα PI percent inhibition, 4.00 μM
  inhibition at 4 µM: 17%
[1]; read-out: TNFα PI percent inhibition, 8.00 μM
  inhibition at 8 µM: 26%
[1]; [5]
  inhibition at 16 µM: 60%
  inhibition at 32 µM: 79%
  inhibition at 64 µM: 89%
Cytokine secretion; [6]
  inhibition at 0.03 µM: 0%
  inhibition at 0.06 µM: 0%
  inhibition at 0.5 µM: 11%
  inhibition at 1 µM: 13%
  inhibition at 2 µM: 10%
  inhibition at 4 µM: 10%
  inhibition at 8 µM: 10%
  inhibition at 16 µM: 3%
  inhibition at 32 µM: 9%
  inhibition at 64 µM: 36%
Cytokine secretion; [7]
  inhibition at 0.03 µM: 0%
  inhibition at 0.06 µM: 0%
  inhibition at 0.5 µM: 0%
  inhibition at 1 µM: 0%
  inhibition at 2 µM: 0%
  inhibition at 4 µM: 0%
  inhibition at 8 µM: 8%
  inhibition at 16 µM: 38%
  inhibition at 32 µM: 68%
  inhibition at 64 µM: 76%
[2]; [8]
  inhibition at 0.03 µM: 0%
[2]; [9]
  inhibition at 0.06 µM: 0%
[2]; read-out: TNFα LPS percent inhibition, 0.50 μM
  inhibition at 0.5 µM: 0%
[2]; read-out: TNFα LPS percent inhibition, 1.00 μM
  inhibition at 1 µM: 0%
[2]; read-out: TNFα LPS percent inhibition, 2.00 μM
  inhibition at 2 µM: 0%
[2]; read-out: TNFα LPS percent inhibition, 4.00 μM
  inhibition at 4 µM: 0%
[2]; read-out: TNFα LPS percent inhibition, 8.00 μM
  inhibition at 8 µM: 0%
[2]; [10]
  inhibition at 16 µM: 3%
  inhibition at 32 µM: 34%
  inhibition at 64 µM: 64%
[2]; LPS, Prednisolone 1 μM, Desipramine μM r5-r13: 0,0.5,1,2,4,8,16,32,64
  percent inhibition of TNFα secretion: 60.8%

## CN(C)CCC=C1c2ccccc2COc2ccccc21 [Doxepin, doxepin]
[1]; [3]
  inhibition at 0.03 µM: 0%
[1]; [4]
  inhibition at 0.06 µM: 0%
[1]; [5]
  inhibition at 63 µM: 78%
Cytokine secretion; [6]
  inhibition at 0.03 µM: 0%
  inhibition at 0.06 µM: 1%
  inhibition at 63 µM: 26%
Cytokine secretion; [7]
  inhibition at 0.03 µM: 0%
  inhibition at 0.06 µM: 0%
  inhibition at 63 µM: 61%
[2]; [8]
  inhibition at 0.03 µM: 0%
[2]; [9]
  inhibition at 0.06 µM: 5%
[2]; [10]
  inhibition at 63 µM: 13%

## CN(C)CCCN1c2ccccc2CCc2ccccc21 [Imipramine, imipramine]
[1]; [3]
  inhibition at 0.03 µM: 0%
[1]; [4]
  inhibition at 0.06 µM: 0%
[1]; [5]
  inhibition at 63 µM: 92%
Cytokine secretion; [6]
  inhibition at 0.03 µM: 0%
  inhibition at 0.06 µM: 0%
  inhibition at 63 µM: 13%
Cytokine secretion; [7]
  inhibition at 0.03 µM: 0%
  inhibition at 0.06 µM: 19%
  inhibition at 63 µM: 85%
[2]; [8]
  inhibition at 0.03 µM: 0%
[2]; [9]
  inhibition at 0.06 µM: 10%
[2]; [10]
  inhibition at 63 µM: 3%

## Cc1cc2c(s1)Nc1ccccc1N=C2N1CCN(C)CC1 [Olanzapine]
[1]; [11]
  inhibition at 0.03 µM: 0%
  inhibition at 0.06 µM: 0%
  inhibition at 0.5 µM: 0%
  inhibition at 1 µM: 0%
  inhibition at 2 µM: 0%
  inhibition at 4 µM: 0%
  inhibition at 8 µM: 0%
  inhibition at 16 µM: 13%
  inhibition at 32 µM: 27%
  inhibition at 64 µM: 54%
Cytokine secretion; [6]
  inhibition at 0.03 µM: 0%
  inhibition at 0.06 µM: 0%
  inhibition at 0.5 µM: 2%
  inhibition at 1 µM: 5%
  inhibition at 2 µM: 3%
  inhibition at 4 µM: 3%
  inhibition at 8 µM: 7%
  inhibition at 16 µM: 21%
  inhibition at 32 µM: 41%
  inhibition at 64 µM: 40%
Cytokine secretion; [7]
  inhibition at 0.03 µM: 0%
  inhibition at 0.06 µM: 0%
  inhibition at 0.5 µM: 0%
  inhibition at 1 µM: 0%
  inhibition at 2 µM: 0%
  inhibition at 4 µM: 0%
  inhibition at 8 µM: 0%
  inhibition at 16 µM: 0%
  inhibition at 32 µM: 0%
  inhibition at 64 µM: 0%
[2]; [12]
  inhibition at 0.03 µM: 0%
  inhibition at 0.06 µM: 0%
  inhibition at 0.5 µM: 0%
  inhibition at 1 µM: 0%
  inhibition at 2 µM: 0%
  inhibition at 4 µM: 0%
  inhibition at 8 µM: 0%
  inhibition at 16 µM: 0%
  inhibition at 32 µM: 0%
  inhibition at 64 µM: 10%
